This note sets out measurements from patent publication US9937240B2, “Peptide having fibrosis inhibitory activity and composition containing same” (GemVax & KAEL Co., Ltd., priority 2014, dated 2018).

In one series the test system is fibronectin (FN). Kind of series: TGF-β inhibition in HepG2 cell lines, qRT-PCR of fibronectin mRNA. The series is classed as cell-based, human. The conditions noted are these: HepG2, TGF-β1 treated; positive control. The procedure:
(§1) To verify the TGF-β inhibitory effect of PEP1, which is considered as the main cause of fibrosis, an experiment for confirming a TGF-β signaling inhibiting action in HepG2 cell lines was performed as follows.
(§2) Reagents and materials used in the experiment are as follows. After powdery PEP1 was dissolved in 0.2 μm filtered sterile water, aliquots were stored at −70° C. and then dissolved before use. As a cell line, HepG2 (ATCC HB-8065; American Type Culture Collection) was used, and recombinant human TGF-β1 was dissolved in 4 mM HCl, thereby preparing a 10 μg/mL stock. SB431542 (Sigma) used as a positive control was prepared in a 10 mM stock.
(§3) 2×10^6 HepG2 cells (ATCC HB-8065) were seeded into a 60 mm petri-dish and cultured in a CO2 incubator for 16 hours. Afterward, media were transferred to serum-free media (SFM), and then the cells were further cultured for 24 hours. […]
(§4) RNA was extracted from peptide-treated cells using an RNEASY® Plus Mini Kit (Qiagen) (RNA extraction kit) according to the manufacture's protocol. The extracted RNA was quantified, and then cDNA was synthesized from 1 μg of total RNA using a reverse transcription system (Promega). […] As TGF-β-related biomarkers, mRNA expression of fibronectin (FN), Smad2 and Smad4 were analyzed, and as a reference gene, GAPDH was used. […]

Another series deals with AsPC1 cells. Briefly: AsPC1 cell xenograft model: fibrosis, cancer cells and mouse weight. The series is classed as in vivo, nude mice. The conditions noted are these: for fibrosis (collagen parts stained in blue color in cancer tissue): administration starting 10 days after inoculation, PEP1 2 mg/kg once a day s.c. The procedure: To verify in vivo anticancer effects of PEP1 and gemcitabine on pancreatic cancer, xenograft experiments were performed using AsPC1 cell lines. A xenografting method used herein is as follows.
Reagents and materials used for the experiment are as follows. After powdery PEP1 was dissolved in 0.2 μm filtered sterile water, aliquots were stored at −70° C. and then dissolved before use, and gemcitabine was dissolved in 100% saline. 5-fluorouracil was dissolved in DMSO.
AsPC1 cell lines (Cell #6×10^5 cells/[…]), which were cell lines used in the experiment, are human pancreatic cancer metastatic cells purchased from the American Type Cell Culture (ATCC, Rockville, Md.).
AsPC1 cells were injected into each of nude mouse experiment groups (1) to (4).
The cultured 5×10^6 AsPC1 cells were subcutaneously injected into nude mice (BALB/c-nu/nu nude mice, purchased from Joongang Laboratory animal, Seoul, Korea). The injection was performed until cancer was grown to a size of 100 mm^3 (about 10 days). Following cancer engraftment, the mice were divided into groups, each group having a similar average weight, and then either or both of gemcitabine and Pep1 were subcutaneously and intraperitoneally injected into the mice according to the conditions for each of the four experiment groups below (refer to FIG. 1). Cancer volume was measured with calipers and calculated by the following formula [width^2×length×0.52].
After grafting, either or both of Pep1 and gemcitabine were administered to each of the four experiment groups.
(1) AsPC1 grafting control
(2) AsPC1 grafting+PEP1 2 mg/kg (once a day, s.c) administered group
After then, weight of each mouse was quantified every time. Also, cancer tissue sample preparation and cell proliferation marker (PCNA)/apoptosis marker (TUNEL) staining were performed.
For analyses of experiment results, averages between several experiment groups was assessed by a student's t-test.

The next series has as its system Smad2. Briefly: TGF-β inhibition in HepG2 cell lines, qRT-PCR of Smad2 mRNA. The class given is cell-based, human. The conditions noted are these: HepG2, 10 ng/ml TGF-β1; PEP1 1, 5 and 10 μM; 48-hour culture; reference gene GAPDH. The procedure: as §1, §2, §3, §4
Another series concerns Smad4. Kind of series: TGF-β inhibition in HepG2 cell lines, qRT-PCR of Smad4 mRNA. The class given is cell-based, human. The conditions noted are these: HepG2, 10 ng/ml TGF-β1; PEP1 1, 5 and 10 μM; 48-hour culture; reference gene GAPDH. The procedure: as §1, §2, §3, §4
Series [1] concerns Normal human epidermal keratinocytes (NHEKs). Briefly: Cell differentiation of radiation-exposed NHEK cell lines. The class given is cell-based. The settings on record: 1 mM of PEP1, 6 Gy ionizing radiation, cultured 10 days. The procedure: To confirm PEP1 effects on fibrosis induced by radiation exposure for anticancer treatment and other tumor treatments, an experiment for confirming a TGF-β inhibitory effect of PEP1 in radiation-exposed NHEKs was performed.
(§5) PEP1 synthesized according to Example 1 and a placebo (sham) as a control were prepared. Normal human epidermal keratinocytes (NHEKs) were cultured in a monolayer to be used for a radiation exposure experiment. For the radiation exposure experiment, ionized radiation was used at an intensity of 6 Gy.
To examine the cell differentiation of NHEK cell lines according to radiation exposure, NHEKs were treated with each of the placebo and 1 mM of PEP1, and then divided into radiation-exposed groups and non-exposed groups, followed by culturing for 10 days (refer to FIG. 13).

The subject of the next series is GRHL2. Kind of series: Biomarker expression in radiation-exposed NHEKs: GRHL2. The class given is cell-based, human. The settings on record: 1 mM of PEP1, 10 days after radiation exposure (6 Gy). Here is the method:
as §5
(§6) Also, to examine the change in expression levels of biomarkers for the NHEK cell lines due to the radiation exposure, the NHEKs were treated with each of the placebo and 1 mM of PEP1 and divided into non-exposed groups (−) and radiation-exposed groups (+), and then expression levels of the biomarkers were examined at day 1 and day 10 after the radiation exposure (refer to FIG. 14). In measurement of the expression levels of the biomarkers, GAPDH was used as a reference control.
(§7) Western blotting procedures were as follows. Peptide-treated cells were washed with PBS twice, collected into a 1.5 mL centrifuge tube using a cell scraper, followed by centrifugation (1,000 rpm, 4° C., 2 minutes). After removal of the obtained supernatant, 100 μL of RIPA buffer was added to the NHEKs. […]
(§8) […] of protein was transferred to a PVDF membrane (Millipore) by 8% sodium dodecyl sulfate-polyacrylamide gel electrophoresis (SDS-PAGE). […] Afterward, ECL detection (Amersham Pharmacia Biotech) was performed, and obtained images were analyzed using an image analyzer (GE Healthcare, IMAGEQUANT™ LAS 4000).

The subject of another series is p63. Kind of series: Biomarker expression in radiation-exposed NHEKs: p63. The series is classed as cell-based, human. The conditions noted are these: 1 mM of PEP1, 10 days after radiation exposure (6 Gy). Here is the method: as §5, §6, §7, §8
A further series deals with N-Cad. Kind of series: Biomarker expression in radiation-exposed NHEKs: N-Cad. The class given is cell-based, human. The settings on record: 1 mM of PEP1, after radiation exposure (6 Gy). Here is the method:
as §5, §6, §7, §8

A further series relates to P-Akt. Briefly: Biomarker expression in radiation-exposed NHEKs: P-Akt. The class given is cell-based, human. The settings on record: 1 mM of PEP1, after radiation exposure (6 Gy). The procedure:
as §5, §6, §7, §8

The test system of the next series is NHEK cell lines. Kind of series: In vitro radiation-induced premature senescence (RIPS) marker expression in NHEKs. The series is classed as cell-based, human. The settings on record: radiation 0 to 10 Gy, qRT-PCR, western blotting, immunofluorescence staining. The procedure:
(§9) PEP1 synthesized according to Example 1 and a placebo (sham) used as a control were prepared. NHEKs were cultured in a monolayer to prepare an in vitro radiation exposure experiment. For in vitro, in situ, and in vivo radiation exposure experiments, ionized radiation was used at various intensities ranging from 0 to 10 Gy (0, 2, 4, 6, 8, and 10 Gy).
The expression level of each marker was measured using qRT-PCR, western blotting, and immunofluorescence staining. For the measurement of the levels, senescence-associated β-galactosidase (SA β-Gal), p16INK4A, p-p53Ser15, p-ATM, γ-H2AX, 53BP1,H3K9me3, HP1γ, and HMGA2 were used as markers.

In a further series the test system is oral mucositis model. Briefly: In vivo oral mucositis model, radiation-induced tongue ulcer. The settings on record: C3H mice, PEP1 1 mg/kg intraperitoneally, 6 Gy IR for five consecutive days. Here is the method: as §9
(§10) Meanwhile, experimental animals were divided into two animal models. The first model was an oral mucositis model, which was prepared by inducing an ulcer to the tongue of each C3H mouse by exposing the head and the neck to radiation (6 Gy, IR) for 5 straight days. The second model is a dermal fibrosis model, which was prepared by inducing local scleroderma by subcutaneously injecting 0.1 cc of a dilution of bleomycin which was known as the cause of pulmonary fibrosis in a 0.9% NaCl aqueous solution at a concentration of 0.5 mg/ml once a day for 24 to 28 days.
For the in vivo experiment, first, in the first oral mucositis model, C3H mice were divided into groups, each intraperitoneally treated with a placebo or PEP1 to give a final dose of 1 mg/kg and exposed to radiation (6 Gy, IR) for five consecutive days to induce a tongue ulcer corresponding to an oral mucositis. Ten days later, the mice were sacrificed to collect tongue tissue, which was stained with toluidine blue and by H&E staining, to perform biopsy. […]

The subject of a further series is dermal fibrosis model. Kind of series: In vivo dermal fibrosis model, bleomycin-induced scleroderma. The conditions noted are these: C3H mice, PEP1 50 mg/kg intraperitoneally, bleomycin subcutaneously for 24 to 28 days. The procedure: as §10, with “28 days. Meanwhile, in the second dermal fibrosis model, C3H mice were divided into groups, each intraperitoneally treated with a placebo or PEP1 to give the final dose of 50 mg/kg, and subcutaneously treated with bleomycin at the concentrations mentioned in the preparation of the experimental animals for 24 to 28 days. 28 days later, the mice were sacrificed to detect scleroderma, followed by an experiment for examining fibrosis diffusion using Masson's trichrome staining.” for “28 days.”

The mark [2] stands for this setting: nude mice inoculated with AsPC1 cells, gemcitabine 125 mg/kg once every third day i.p.

Take `NC(=O)c1ccc(-c2nc(-c3ccc4c(c3)OCO4)c(-c3ccccn3)[nH]2)cc1` [SB431542]: in the series with fibronectin (FN), the fibronectin inhibition ratio stood at 60.7%.
For `Nc1ccn([C@@H]2O[C@H](CO)[C@@H](O)C2(F)F)c(=O)n1` [gemcitabine], in the series with AsPC1 cells (day 20 after the administration, compared between the four experiment groups), the “weight of a mouse” value is given as “the smallest”. Besides, in the series on AsPC1 cells (setting [2]), the “fibrosis (collagen parts stained in blue color in cancer tissue)” value is on record as “fibrosis was considerably developed” and the “cancer cells (parts stained in red color)” value is recorded as “cancer cells were killed”.
For “EARPALLTSRLRFIPK (listed as Homo sapiens) [PEP1, telomerase-derived peptide, which consists of 16 amino acids; position [611-626] on telomerase]”, in the series with AsPC1 cells (setting [2]), the “fibrosis (collagen parts stained in blue color in cancer tissue)” value is “fibrosis was considerably inhibited”. In the series with Smad2, the “Smad2 mRNA expression” value is listed as “concentration-dependently inhibited”. The “Smad4 mRNA expression” value in the series with Smad4 is “concentration-dependently inhibited”. Also, the “cell differentiation (fibrosis development) after radiation exposure” value in series [1] is “hardly showed differentiation”. The GRHL2 expression level entry with GRHL2 is given as “increased”. Moreover, the p63 expression level result with p63 is recorded as “increased”. Moreover, the N-Cad expression level result with N-Cad is given as “decreased”. Moreover, the “P-Akt expression level (degree of cell survival)” value with P-Akt was “increased”. Moreover, the “radiation-induced premature senescence (RIPS), indicated by marker expression” value in the series on NHEK cell lines is “RIPS inhibitory effect”. Also, the “defensive effect against exposure to radiation, indicated by biopsy” value with oral mucositis model is on record as “defensive effects”. In addition, the “defensive effect against induction of tissue fibrosis, indicated by biopsy” value with dermal fibrosis model was “defensive effects”.
